In brackets after ≈: the same amount, converted by molar mass.
Assays:
[1] = Half-life in Sprague-Dawley rat at 3 mg/kg, iv administered as single bolus dose measured after 5 to 12 hrs by LC/MS/MS analysis; format: ADME, organism-based; settings: in vivo
[2] = Oral bioavailability in Sprague-Dawley rat at 10 mg/kg measured upto 12 hrs by LC/MS/MS analysis; format: ADME, organism-based; settings: in vivo
[3] = AUC (0 to infinity) in BALB/c mouse at 3 mg/kg, iv administered as single bolus dose measured after 24 hrs by LC/MS/MS analysis; format: ADME, organism-based; parameters: dose 3 mg/kg, time infinity, route intravenous; settings: in vivo
[4] = Half-life in BALB/c mouse at 10 mg/kg, po measured after 24 hrs by LC/MS/MS analysis; format: ADME, organism-based; settings: in vivo
[5] = Cmax in Sprague-Dawley rat at 3 mg/kg, iv administered as single bolus dose measured after 5 to 12 hrs by LC/MS/MS analysis; format: ADME, organism-based; parameters: dose 3 mg/kg, route intravenous; settings: in vivo
[6] = AUC (0 to infinity) in BALB/c mouse at 10 mg/kg, po measured after 24 hrs by LC/MS/MS analysis; format: ADME, organism-based; parameters: dose 10 mg/kg, route oral, time infinity; settings: in vivo
[7] = Cmax in BALB/c mouse at 10 mg/kg, po measured after 24 hrs by LC/MS/MS analysis; format: ADME, organism-based; parameters: dose 10 mg/kg, route oral; settings: in vivo
Chitotriosidase-1 [8] = biological target: Chitotriosidase-1 (Homo sapiens, UniProt Q13231); test: Inhibition of full-length C-terminal his-tagged human CHIT1 expressed in CHOK1 cells assessed as reduction in chitinolytic activity using 4-methylumbelliferyl-beta-D-N,N',N\"-triacetylchitotrioside as substrate after 60 mins by fluorometric assay; format: cell-based
[9] = biological target: dopamine transporter (DAT) (Homo sapiens, UniProt Q01959); test: Displacement of [3H]BTCP from recombinant human dopamine transporter at 10 uM after 120 mins by scintillation counting analysis relative to control; format: ADME; settings: probe [3H]BTCP
[10] = biological target: Sodium-dependent dopamine transporter (Homo sapiens, UniProt Q01959); test: Inhibition of radioligand binding to human dopamine transporter by radioligand binding assay; format: ADME
[11] = AUC (0 to infinity) in Sprague-Dawley rat at 10 mg/kg, po measured upto 12 hrs by LC/MS/MS analysis; format: ADME, organism-based; parameters: dose 10 mg/kg, route oral, time infinity; settings: in vivo
[12] = Half-life in Sprague-Dawley rat at 10 mg/kg, po measured upto 12 hrs by LC/MS/MS analysis; format: ADME, organism-based; settings: in vivo
[13] = Lipophilicity, logD of the compound at pH 7.4; format: physicochemical; settings: buffer
[14] = biological target: Acidic mammalian chitinase (Homo sapiens, UniProt Q9BZP6); test: Inhibition of full-length C-terminal his-tagged human acidic mammalian chitinase expressed in CHOK1 cells assessed as reduction in chitinolytic activity using 4-methylumbelliferyl-beta-D-N,N-diacetylchitobioside hydrate as substrate after 60 mins by fluorometric assay
[15] = Half-life in BALB/c mouse at 3 mg/kg, iv administered as single bolus dose measured after 24 hrs by LC/MS/MS analysis; format: ADME, organism-based; settings: in vivo
[16] = AUC (0 to infinity) in Sprague-Dawley rat at 3 mg/kg, iv administered as single bolus dose measured after 5 to 12 hrs by LC/MS/MS analysis; format: ADME, organism-based; parameters: dose 3 mg/kg, time infinity, route intravenous; settings: in vivo
[17] = Solubility of the compound in water; format: physicochemical
[18] = biological target: T1, Voltage-gated inwardly rectifying potassium channel KCNH2 (Homo sapiens, UniProt Q12809); test: Displacement of Tracer Red from human ERG by fluorescence polarization assay
[19] = biological target: T1, Voltage-gated inwardly rectifying potassium channel KCNH2; test: Inhibition of human ERG expressed in CHO-K1 cells by automated Patch Clamp method; format: cell-based
[20] = Oral bioavailability in BALB/c mouse at 10 mg/kg measured after 24 hrs by LC/MS/MS analysis; format: ADME, organism-based; settings: in vivo
[21] = Drug uptake in BALB/c mouse brain at 10 mg/kg, po administered as single dose after 2 hrs by LC/MS/MS analysis; format: ADME, organism-based; settings: in vivo
[22] = Clearance in BALB/c mouse at 3 mg/kg, iv administered as single bolus dose measured after 24 hrs by LC/MS/MS analysis; format: ADME, organism-based; settings: in vivo
[23] = Genotoxicity in Salmonella typhimurium; format: toxicity; settings: salmonella enterica subsp. enterica serovar typhimurium
Mus musculus = test: Antiinflammatory activity in C57BL/6 mouse model of house-dust mite induced pulmonary inflammation assessed as reduction in total CD45 positive cells in bronchoalveolar lavage fluid at 50 mg/kg, po administered once daily starting from day 7 post house-dust mite challenge and measured on day 19 by flow cytometric method relative to control; format: functional; parameters: scale not given: the % may be the effect or the level left
[24] = Tmax in Sprague-Dawley rat at 10 mg/kg, po measured upto 12 hrs by LC/MS/MS analysis; format: ADME, organism-based; settings: in vivo
[25] = biological target: Sodium-dependent dopamine transporter (Rattus norvegicus, UniProt P23977); test: Displacement of [3H]DA from rat dopamine transporter after 15 mins by scintillation counting analysis; format: ADME
[26] = biological target: Acidic mammalian chitinase (Mus musculus, UniProt Q91XA9); test: Inhibition of full-length C-terminal his-tagged mouse acidic mammalian chitinase expressed in CHO-K1 cells assessed as reduction in chitinolytic activity using 4-methylumbelliferyl-beta-D-N,N'-diacetylchitobioside hydrate as substrate after 60 mins by fluorometric assay
[27] = Cmax in BALB/c mouse at 3 mg/kg, iv administered as single bolus dose measured after 24 hrs by LC/MS/MS analysis; format: ADME, organism-based; parameters: dose 3 mg/kg, route intravenous; settings: in vivo
Chitotriosidase-1 [28] = biological target: Chitotriosidase-1 (Mus musculus, UniProt Q9D7Q1); test: Inhibition of full-length C-terminal his-tagged mouse CHIT1 expressed in CHO-K1 cells assessed as reduction in chitinolytic activity using 4-methylumbelliferyl-beta-D-N,N',N\"-triacetylchitotrioside as substrate after 60 mins by fluorometric assay; format: cell-based
[29] = Cmax in Sprague-Dawley rat at 10 mg/kg, po measured upto 12 hrs by LC/MS/MS analysis; format: ADME, organism-based; parameters: dose 10 mg/kg, route oral; settings: in vivo
[30] = Tmax in BALB/c mouse at 10 mg/kg, po measured after 24 hrs by LC/MS/MS analysis; format: ADME, organism-based; settings: in vivo

T1 sequence (Q12809 whole entry): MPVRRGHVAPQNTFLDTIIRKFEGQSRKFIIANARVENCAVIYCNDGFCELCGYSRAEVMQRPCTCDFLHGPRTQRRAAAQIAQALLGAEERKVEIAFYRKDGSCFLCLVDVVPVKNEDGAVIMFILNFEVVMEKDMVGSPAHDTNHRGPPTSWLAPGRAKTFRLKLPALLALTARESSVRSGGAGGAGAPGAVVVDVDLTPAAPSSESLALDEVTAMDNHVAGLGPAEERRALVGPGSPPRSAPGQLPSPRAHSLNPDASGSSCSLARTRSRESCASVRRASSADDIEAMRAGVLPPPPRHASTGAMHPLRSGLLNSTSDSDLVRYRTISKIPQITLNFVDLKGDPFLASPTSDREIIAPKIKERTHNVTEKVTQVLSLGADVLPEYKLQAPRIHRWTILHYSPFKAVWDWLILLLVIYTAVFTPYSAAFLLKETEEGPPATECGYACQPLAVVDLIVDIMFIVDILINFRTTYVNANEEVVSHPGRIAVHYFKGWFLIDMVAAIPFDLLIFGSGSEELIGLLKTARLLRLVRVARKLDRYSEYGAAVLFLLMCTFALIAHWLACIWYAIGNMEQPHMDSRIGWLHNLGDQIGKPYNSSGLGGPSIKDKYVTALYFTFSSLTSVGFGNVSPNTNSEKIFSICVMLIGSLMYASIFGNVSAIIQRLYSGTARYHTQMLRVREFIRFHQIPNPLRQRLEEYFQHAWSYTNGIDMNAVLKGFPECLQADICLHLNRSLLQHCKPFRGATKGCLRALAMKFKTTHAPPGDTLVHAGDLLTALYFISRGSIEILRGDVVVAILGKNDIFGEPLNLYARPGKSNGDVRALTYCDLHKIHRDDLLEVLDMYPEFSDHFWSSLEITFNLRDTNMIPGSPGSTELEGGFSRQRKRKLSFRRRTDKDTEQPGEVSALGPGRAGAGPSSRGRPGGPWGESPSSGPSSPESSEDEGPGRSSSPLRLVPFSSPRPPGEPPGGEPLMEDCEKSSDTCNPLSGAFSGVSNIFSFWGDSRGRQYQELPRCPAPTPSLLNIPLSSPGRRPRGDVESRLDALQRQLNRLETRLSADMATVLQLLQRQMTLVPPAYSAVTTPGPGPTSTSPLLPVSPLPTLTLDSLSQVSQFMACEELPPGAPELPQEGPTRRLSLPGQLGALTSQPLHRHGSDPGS
Sequence of Acidic mammalian chitinase (Homo sapiens, UniProt Q9BZP6) (Q9BZP6 whole entry): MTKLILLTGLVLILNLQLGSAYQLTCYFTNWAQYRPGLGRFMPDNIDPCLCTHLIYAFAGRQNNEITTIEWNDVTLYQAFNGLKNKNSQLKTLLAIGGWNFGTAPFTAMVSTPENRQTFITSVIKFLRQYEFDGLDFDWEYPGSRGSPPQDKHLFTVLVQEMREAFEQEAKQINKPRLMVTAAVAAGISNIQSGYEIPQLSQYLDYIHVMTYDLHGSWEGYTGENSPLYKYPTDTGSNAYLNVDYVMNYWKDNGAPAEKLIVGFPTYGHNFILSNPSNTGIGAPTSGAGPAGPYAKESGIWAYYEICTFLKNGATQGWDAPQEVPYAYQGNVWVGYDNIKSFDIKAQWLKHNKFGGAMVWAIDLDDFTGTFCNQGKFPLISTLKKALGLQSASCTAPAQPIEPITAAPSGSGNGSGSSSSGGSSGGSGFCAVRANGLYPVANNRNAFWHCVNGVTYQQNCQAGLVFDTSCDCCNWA
Sequence of Chitotriosidase-1 (Mus musculus, UniProt Q9D7Q1) (Q9D7Q1 whole entry): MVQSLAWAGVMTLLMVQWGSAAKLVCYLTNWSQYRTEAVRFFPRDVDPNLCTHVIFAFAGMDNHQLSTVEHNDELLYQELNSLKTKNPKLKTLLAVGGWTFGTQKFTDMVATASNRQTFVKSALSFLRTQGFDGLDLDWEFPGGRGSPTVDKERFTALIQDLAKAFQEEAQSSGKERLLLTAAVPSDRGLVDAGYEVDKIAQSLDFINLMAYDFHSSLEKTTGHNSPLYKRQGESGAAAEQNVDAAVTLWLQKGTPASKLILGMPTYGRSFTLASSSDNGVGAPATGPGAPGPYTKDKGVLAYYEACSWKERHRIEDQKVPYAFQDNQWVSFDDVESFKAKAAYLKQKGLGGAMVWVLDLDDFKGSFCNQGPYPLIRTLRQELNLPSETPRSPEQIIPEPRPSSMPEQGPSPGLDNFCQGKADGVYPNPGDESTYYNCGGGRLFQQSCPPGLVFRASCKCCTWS
Sequence of Chitotriosidase-1 (Homo sapiens, UniProt Q13231) (Q13231 whole entry): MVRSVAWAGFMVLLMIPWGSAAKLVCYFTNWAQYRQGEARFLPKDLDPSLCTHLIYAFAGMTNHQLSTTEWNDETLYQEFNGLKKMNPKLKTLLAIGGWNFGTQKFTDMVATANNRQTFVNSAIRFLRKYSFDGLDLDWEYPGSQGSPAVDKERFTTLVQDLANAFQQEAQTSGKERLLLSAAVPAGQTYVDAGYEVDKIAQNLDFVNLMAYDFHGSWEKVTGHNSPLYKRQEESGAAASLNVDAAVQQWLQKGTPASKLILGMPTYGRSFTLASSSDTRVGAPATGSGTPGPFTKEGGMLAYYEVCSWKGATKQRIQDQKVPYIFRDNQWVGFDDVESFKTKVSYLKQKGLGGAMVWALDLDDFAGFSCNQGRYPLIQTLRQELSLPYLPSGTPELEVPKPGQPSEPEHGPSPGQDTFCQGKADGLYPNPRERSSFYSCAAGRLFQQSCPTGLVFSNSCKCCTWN
Sequence of Sodium-dependent dopamine transporter (Rattus norvegicus, UniProt P23977) (P23977 whole entry): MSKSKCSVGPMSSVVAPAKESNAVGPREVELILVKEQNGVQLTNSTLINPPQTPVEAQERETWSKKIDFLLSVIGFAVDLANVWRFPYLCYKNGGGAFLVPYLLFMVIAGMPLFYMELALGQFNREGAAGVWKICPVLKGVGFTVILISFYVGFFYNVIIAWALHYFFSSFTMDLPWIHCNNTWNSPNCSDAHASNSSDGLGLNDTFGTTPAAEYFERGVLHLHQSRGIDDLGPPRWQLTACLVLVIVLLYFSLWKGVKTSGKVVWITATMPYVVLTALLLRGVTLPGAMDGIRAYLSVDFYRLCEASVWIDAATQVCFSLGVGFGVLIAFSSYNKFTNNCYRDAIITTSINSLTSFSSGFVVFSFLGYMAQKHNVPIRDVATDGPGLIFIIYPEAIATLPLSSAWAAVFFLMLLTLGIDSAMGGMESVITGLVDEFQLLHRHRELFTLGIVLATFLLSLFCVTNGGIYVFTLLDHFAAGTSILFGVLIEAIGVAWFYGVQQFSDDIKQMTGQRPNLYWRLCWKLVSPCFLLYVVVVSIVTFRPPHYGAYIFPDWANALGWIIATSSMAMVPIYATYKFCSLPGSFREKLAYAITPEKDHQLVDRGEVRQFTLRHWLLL
Sequence of Acidic mammalian chitinase (Mus musculus, UniProt Q91XA9) (Q91XA9 whole entry): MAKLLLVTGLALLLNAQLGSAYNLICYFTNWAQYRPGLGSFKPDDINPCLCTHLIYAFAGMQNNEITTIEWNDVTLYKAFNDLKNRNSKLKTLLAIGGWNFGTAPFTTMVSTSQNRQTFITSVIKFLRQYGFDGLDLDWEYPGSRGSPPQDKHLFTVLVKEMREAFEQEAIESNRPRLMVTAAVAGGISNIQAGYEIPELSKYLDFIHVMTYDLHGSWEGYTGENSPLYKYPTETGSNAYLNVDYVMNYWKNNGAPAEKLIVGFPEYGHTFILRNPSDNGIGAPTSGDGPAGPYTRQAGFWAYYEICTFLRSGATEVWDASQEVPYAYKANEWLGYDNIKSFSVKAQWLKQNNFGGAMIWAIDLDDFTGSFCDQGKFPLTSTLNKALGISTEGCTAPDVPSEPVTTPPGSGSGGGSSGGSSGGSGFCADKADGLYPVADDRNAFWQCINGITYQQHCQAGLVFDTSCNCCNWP
Sequence of dopamine transporter (DAT) (Q01959 whole entry): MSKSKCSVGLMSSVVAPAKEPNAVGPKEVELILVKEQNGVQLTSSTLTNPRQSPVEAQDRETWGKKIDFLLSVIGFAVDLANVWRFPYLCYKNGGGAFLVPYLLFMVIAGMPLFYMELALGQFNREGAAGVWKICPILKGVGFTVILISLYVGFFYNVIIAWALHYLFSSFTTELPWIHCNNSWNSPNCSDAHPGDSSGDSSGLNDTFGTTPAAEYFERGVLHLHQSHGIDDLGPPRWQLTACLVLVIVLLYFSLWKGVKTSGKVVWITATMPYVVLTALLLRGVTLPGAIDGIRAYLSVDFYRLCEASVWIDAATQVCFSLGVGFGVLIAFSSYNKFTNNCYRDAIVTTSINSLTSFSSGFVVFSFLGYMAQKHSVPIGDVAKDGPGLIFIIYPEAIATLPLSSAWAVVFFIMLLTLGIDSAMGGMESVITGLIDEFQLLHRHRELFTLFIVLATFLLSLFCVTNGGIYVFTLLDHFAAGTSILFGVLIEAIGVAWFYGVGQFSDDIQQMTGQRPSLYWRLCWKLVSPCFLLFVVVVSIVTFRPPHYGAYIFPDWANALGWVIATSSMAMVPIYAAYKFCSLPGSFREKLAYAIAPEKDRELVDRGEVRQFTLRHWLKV
Sequence of Sodium-dependent dopamine transporter (Homo sapiens, UniProt Q01959) (Q01959 whole entry): as above

Structure (SMILES): Nc1nnc(N2CCC(N3CCOC[C@@H]3Cc3ccc(Cl)cc3)CC2)[nH]1
- half-life [1]: 7.95 h
- bioavailability [2]: 48%
- AUC(0-inf) [3]: 4760 ng·h/mL
- half-life [4]: 2.68 h
- Cmax [5]: 16500 ng/mL
- AUC(0-inf) [6]: 11100 ng·h/mL
- Cmax [7]: 2390 ng/mL
- IC50 (Chitotriosidase-1 [8]): 48 nM
- inhibition at 2 h, 10 µM [9]: 95%
- IC50 [10]: 300 nM
- AUC(0-inf) [11]: 8010 ng·h/mL
- half-life [12]: 2.14 h
- logD [13]: 1.96
- IC50 [14]: 22 nM
- half-life [15]: 2.5 h
- AUC [16]: 4980 ng·h/mL
- solubility [17]: 310 µg/mL (≈ 823 µM)
- IC50 [18]: 39000 nM
- IC50 [19]: 12000 nM
- bioavailability [20]: 70%
- Drug uptake [21]: 6.8%
- clearance [22]: 10.5 mL/min/kg
- Activity [23]: Non-Toxic
- Activity (Mus musculus): 37%
- Tmax [24]: 1.5 h
- IC50 [25]: 7900 nM
- IC50 [26]: 30 nM
- Cmax [27]: 1590 ng/mL
- IC50 (Chitotriosidase-1 [28]): 74 nM
- Cmax [29]: 1560 ng/mL
- Tmax [30]: 1 h
